Reference: US12054495B2, “Substituted macrocyclic compounds and related methods of treatment” (Alkermes, Inc., priority 2019, dated 2024)

Tests used:
Assay type in all cases: in vitro ADME
MDR1 = test: MDCK-MDR1 permeability assay; details: dog; for Papp A→B at 2 h, 3 μM: MDCK-MDR1, MDCK-MDR1 cells, apical to basolateral, 3 μM test compound, 2 hours at 37 degrees C; for efflux ratio at 2 h, 3 μM: MDCK-MDR1, Papp (basolateral to apical) divided by Papp (apical to basolateral), MDCK-MDR1 cells, read-out: Efflux ratio (ER)
Protocol: The bidirectional permeability (Apical to Basal and Basal to Apical directions) of test compounds in MDCK-MIDR1 cells were evaluated using MDCK-MIDR1 cells seeded in Solvo PreadyPort™ MIDCK 96-well plate. Once the plate was received from ReadyCell (Barcelona, Spain), it was treated as per PreadyPort™ user's manual.
For the Apical to Basolateral (A→B) permeability, 80 μL of test compound (3 μM) co-dosed with LY (Lucifer Yellow) (100 μM) in HBSS (Hank's Balanced Salt Solution) assay buffer was added to the donor side (A) while 250 μL of HBSS buffer was added to the receiver side (B). For the Basolateral to Apical (B→A) permeability, 255 μL of test compound (3 μM) in HBSS assay buffer was added to the donor side (B) while 75 μL of HBSS buffer containing LY (100 μM) was added to the receiver side (A).
The plate was placed in an incubator set at 37 degrees C. After 10 minutes of pre-warming, 5 μL aliquot was taken from donor compartment and set aside as the dosing solution. The MDCK-MDR1 incubation plate was placed back into the incubator for 2 hours of incubation at 37 degrees C. After 2 hours of incubation, 25 μL and 5 μL aliquots were removed from the receiver and donor sides, respectively. To the 5 μL aliquots taken from the donor sides (before and after a 2-hour incubation) were diluted with 20 μL of the HBSS buffer. All samples were mixed with 150 μL with acetonitrile containing internal standard (IS) and 200 μL water, and analyzed by LC-MS/MS.
The apparent permeability (Papp) was calculated using the following formula: Papp=dQ/dt×1/A×C0 where: • dQ/dt: amount of translocated material over incubation time (nmol/s) • A: area of insert (0.14 cm^2 for PreadyPort™ MDR1-96) • C0: initial concentration of product applied in apical (A→B) or basal (B→A) compartment (nmol/mL)
The efflux ratio (ER) was measured by dividing the Papp (basolateral to apical direction) by Papp (apical to basolateral direction). It is a general measure of the involvement of active processes. An ER>2 is considered positive for active transport.
The data reported in Table 3 were obtained according to the MDCK-MIDR1 permeability assay described above.

[1] = Hepatocytes stability assay (human hepatocytes); details: both sexes, cryopreserved hepatocytes, 1 μM test compound, 1×10^6 cell/mL, 37 degrees C, read-out: CLint (μL/min/million cells)
Protocol: (§1) In vitro metabolic stability was assessed using cryopreserved hepatocytes from male Sprague Dawley rats and a pool of 50 mixed gender humans (BioIVT, Baltimore, MD). The incubation mixtures were prepared by mixing 250 μL of pre-warmed KHB (Krebs-Henseleit buffer) containing 2×10^6 cell/mL of hepatocytes with 250 μL of pre-warmed KHB buffer containing 2 μM of test compounds in a 48-well plate, giving a final concentration of 1 μM test compound (0.1% DMSO) and 1×10^6 cell/mL of hepatocytes. The reaction mixture was incubated at 37 degrees C. A 50 μL aliquot of incubation mixture was taken at time points (0, 15, 30, 60, 120 and 240 minutes) and transferred into a 96-well plate containing 300 μL ice-cold acetonitrile (containing 30 ng/mL of labetalol and 10 ng/mL of Naltrexone-d3 as internal standards) and immediately placed in ice to terminate the reaction. Samples were centrifuged, and supernatants were transferred into 96-well plates for liquid chromatography with tandem mass spectrometry (LC-MS/MS) analysis to monitor the depletion of the test compound.
(§2) Data was calculated as percent remaining by assuming zero-minute time point peak area ratio (analyte/IS) as 100% and dividing remaining time point peak area ratios by zero-minute time point peak area ratio. Data were fitted to a first-order decay model to determine half-life. From a plot of log (ln) peak area against time, the slope of the line was determined. Subsequently, half-life (T1/2) and intrinsic clearance (CLint) were calculated using the equations below: Elimination rate constant (k)=(−slope) Half-life (T1/2)min=0.693/k Intrinsic Clearance (CLint) (mL/min/million cells)=(V×0.693)/T1/2 V=incubation volume mL/number of cells The in vitro T1/2 was converted to in vitro intrinsic clearance (CLint,hep) in units of mL/min/kg using the formula shown below:
(§3) [formula] The in vitro intrinsic clearance (CLint,hep) was scaled to in vivo hepatic clearance (CL,hep) using the following equation which was adapted from a well-stirred model.
(§4) [formula] where Q is the liver blood flow and fu is the fraction unbound (assumed to be unity in this case). All parameters used in the calculation are shown below (Table 4).
(§5) The extraction ratio (ER) was calculated by dividing the hepatic clearance of a compound to the liver blood flow. The data reported in Table 5 were obtained according to the human hepatocytes stability assay described above.

human hepatocytes = test: Hepatocytes stability assay (human hepatocytes); details: scaled hepatic clearance divided by liver blood flow, fu assumed unity
Protocol: as §1, §2, §3, §4, §5

Papp A→B at 2 h, 3 μM (MDR1) [×10⁻⁶ cm/s]	efflux ratio at 2 h, 3 μM (MDR1)	hepatocyte CLint at 1 μM [1] [µL/min/1e6 cells]	Extraction Ratio (ER) (human hepatocytes)	SMILES
0.15	> 100	14	0.67	CS(=O)(=O)N[C@H]1CCCN2C(=O)CCOc3ccccc3C3CCC(CC3)OCC12 (stereo partly shown) [Compound 1]
0.8	34	43	0.87	CS(=O)(=O)N[C@H]1CCCN2C(=O)CCCCOc3ccccc3C3CCC(CC3)OCC12 (stereo partly shown) [Compound 3]
0.47	97	28	0.81	CS(=O)(=O)N[C@H]1CCCN2C(=O)CCCOc3ccccc3C3CCC(CC3)OCC12 (stereo partly shown) [Compound 4]
21	0.66	45	0.87	CS(=O)(=O)N[C@H]1CCCN2CCOc3ccccc3C3CCC(CC3)OCC12 (stereo partly shown) [Compound 6]
0.29	15	8.3	0.55	CS(=O)(=O)N[C@H]1CCCN2C(=O)CCc3ccccc3C3CCC(CC3)OCC12 (stereo partly shown) [Compound 10]
2.2	5.5	33	0.83	CS(=O)(=O)N[C@H]1CCCN2C(=O)COc3c(F)cccc3C3CCC(CC3)OCC12 (stereo partly shown) [Compound 11]
26	0.55	47	0.88	CS(=O)(=O)N[C@H]1CCCN2CCOc3c(F)cccc3C3CCC(CC3)OCC12 (stereo partly shown) [Compound 13]
3.9	2	23	0.77	CS(=O)(=O)N[C@H]1CCN2C(=O)COc3ncccc3C3CCC(CC3)OCC12 (stereo partly shown) [Compound 18]
2	9.5	66	0.91	CC1(C)Oc2ccccc2C2CCC(CC2)OCC2[C@@H](NS(C)(=O)=O)CCCN2C1=O (stereo partly shown) [Compound 36]
24	0.49	47	0.88	CS(=O)(=O)N[C@H]1CCN2CCOc3ccccc3C3CCC(CC3)OCC12 (stereo partly shown) [Compound 39]
3.6	5.1	65	0.91	CS(=O)(=O)N[C@H]1CCCN2C(=O)C(F)(F)Oc3ccccc3C3CCC(CC3)OCC12 (stereo partly shown) [Compound 40]
11	1.3	52	0.89	CS(=O)(=O)N[C@H]1CCN2C(=O)COc3c(F)cccc3C3CCC(CC3)OCC12 (stereo partly shown) [Compound 42]
12	1.1	34	0.83	CS(=O)(=O)N[C@H]1CCN2C(=O)COc3c(F)cc(F)cc3C3CCC(CC3)OCC12 (stereo partly shown) [Compound 43]
6.3	1.9	65	0.91	CC1(C)CN2CCC[C@H](NS(C)(=O)=O)C2COC2CCC(CC2)c2ccccc2O1 (stereo partly shown) [Compound 44]
1.2	12	44	0.87	CS(=O)(=O)N[C@H]1CCCN2C(=O)C(F)(F)Oc3c(F)cc(F)cc3C3CCC(CC3)OCC12 (stereo partly shown) [Compound 52]
2.8	7.9	19	0.92	CS(=O)(=O)N[C@H]1CCN2C(=O)C(F)(F)Oc3ccccc3C3CCC(CC3)OCC12 (stereo partly shown) [Compound 53]
2.6	7.3	56	0.89	CS(=O)(=O)N[C@H]1CCN2C(=O)C(F)(F)Oc3c(F)cc(F)cc3C3CCC(CC3)OCC12 (stereo partly shown) [Compound 54]
0.16	51	2.1	0.24	CS(=O)(=O)N[C@H]1CCCN2C(=O)COc3ccc(Br)cc3C3CCC(CC3)OCC12 (stereo partly shown) [Compound 57]
1.5	10	62	0.90	CS(=O)(=O)N[C@H]1CCCN2CCOc3c(F)cc(F)cc3C3CCC(CC3)OCC12 (stereo partly shown) [Compound 58]
2	5.5	33	0.83	CS(=O)(=O)N[C@H]1CCCN2CCOc3ccc(Cl)cc3C3CCC(CC3)OCC12 (stereo partly shown) [Compound 61]
0.83	30	9	0.57	CS(=O)(=O)N[C@H]1CCCN2C(=O)COc3ncc(F)cc3C3CCC(CC3)OCC12 (stereo partly shown) [Compound 64]
15	0.5	34	0.84	CS(=O)(=O)N[C@H]1CCCN2CCOc3ncccc3C3CCC(CC3)OCC12 (stereo partly shown) [Compound 65]
